# Measurements as given in ChEMBL document CHEMBL1240344, “Phage-encoded combinatorial chemical libraries based on bicyclic peptides” (Nat Chem Biol, 2009).
# Activity calls are given as the source filed them. No cut-off for these calls is given here. Starred links: 1 amine or outer side, 2 acyl side, 3 side chain; linkers in the order of their positions; H or OH if unused. Positions of bridges follow the written chain, without caps; N, C: chain ends. Residues, ends and D or L forms follow the SMILES beside them. TBMB = c1c(C[*:1])cc(C[*:3])cc1C[*:2]
# Columns and labels:
# [1] = biological target: Coagulation factor XI (Homo sapiens) (UniProt P03951); test: Inhibition of human factor 11a at 10 uM using Z-Phe-Arg-AMC substrate after 30 mins by spectrophotometric assay
# Plasma kallikrein = Plasma kallikrein (Homo sapiens, UniProt P03952); test: Inhibition of human plasma kallikrein using Z-Phe-Arg-AMC substrate after 30 mins by spectrophotometric assay
# [2] = biological target: Plasma kallikrein (Mus musculus) (UniProt P26262); test: Inhibition of mouse plasma kallikrein at 10 uM using Z-Phe-Arg-AMC substrate after 30 mins by spectrophotometric assay; format: cell-free
# [3] = biological target: Prothrombin (Homo sapiens) (UniProt P00734); test: Inhibition of human thrombin at 10 uM using Boc-Phe-Ser-Arg-AMC substrate after 30 mins by spectrophotometric assay
# Chain of Plasma kallikrein (P03952 20-390 limits assumed): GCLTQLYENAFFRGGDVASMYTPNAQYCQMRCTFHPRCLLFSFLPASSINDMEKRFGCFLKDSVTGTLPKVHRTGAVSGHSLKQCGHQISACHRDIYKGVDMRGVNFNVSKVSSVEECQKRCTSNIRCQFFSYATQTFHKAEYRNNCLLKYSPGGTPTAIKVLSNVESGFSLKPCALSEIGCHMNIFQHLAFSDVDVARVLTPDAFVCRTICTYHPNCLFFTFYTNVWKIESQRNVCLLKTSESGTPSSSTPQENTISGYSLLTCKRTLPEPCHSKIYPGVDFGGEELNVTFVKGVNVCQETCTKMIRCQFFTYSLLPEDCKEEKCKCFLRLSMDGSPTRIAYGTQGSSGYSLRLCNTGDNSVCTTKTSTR
# Chain of Plasma kallikrein (P03952 391-638 limits assumed): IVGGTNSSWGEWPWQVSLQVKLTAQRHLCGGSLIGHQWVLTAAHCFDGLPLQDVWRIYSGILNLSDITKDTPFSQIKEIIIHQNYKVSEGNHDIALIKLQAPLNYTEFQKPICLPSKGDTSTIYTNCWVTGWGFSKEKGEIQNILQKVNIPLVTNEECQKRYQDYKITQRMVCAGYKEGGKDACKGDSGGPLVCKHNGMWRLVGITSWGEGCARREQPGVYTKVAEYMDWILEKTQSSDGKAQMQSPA
# Chain of Coagulation factor XI (Homo sapiens) (P03951 19-387 limits assumed): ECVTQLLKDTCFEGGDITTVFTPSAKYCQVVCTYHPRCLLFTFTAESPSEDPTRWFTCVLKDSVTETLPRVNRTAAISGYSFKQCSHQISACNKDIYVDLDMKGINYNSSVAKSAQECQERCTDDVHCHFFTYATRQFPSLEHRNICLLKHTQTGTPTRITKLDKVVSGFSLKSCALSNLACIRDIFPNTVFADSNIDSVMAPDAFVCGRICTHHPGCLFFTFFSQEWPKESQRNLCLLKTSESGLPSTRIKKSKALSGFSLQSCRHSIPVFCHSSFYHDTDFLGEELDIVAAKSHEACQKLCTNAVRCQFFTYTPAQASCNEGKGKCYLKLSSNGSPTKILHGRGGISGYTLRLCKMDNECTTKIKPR
# Chain of Coagulation factor XI (Homo sapiens) (P03951 388-625 limits assumed): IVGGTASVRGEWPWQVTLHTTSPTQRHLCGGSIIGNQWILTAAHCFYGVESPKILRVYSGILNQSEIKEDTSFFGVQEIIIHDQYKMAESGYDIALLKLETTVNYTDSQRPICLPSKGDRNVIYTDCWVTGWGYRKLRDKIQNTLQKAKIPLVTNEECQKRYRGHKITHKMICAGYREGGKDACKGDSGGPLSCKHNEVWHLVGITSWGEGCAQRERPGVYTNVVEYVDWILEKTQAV
# Chain of Plasma kallikrein (Mus musculus) (P26262 20-390 limits assumed): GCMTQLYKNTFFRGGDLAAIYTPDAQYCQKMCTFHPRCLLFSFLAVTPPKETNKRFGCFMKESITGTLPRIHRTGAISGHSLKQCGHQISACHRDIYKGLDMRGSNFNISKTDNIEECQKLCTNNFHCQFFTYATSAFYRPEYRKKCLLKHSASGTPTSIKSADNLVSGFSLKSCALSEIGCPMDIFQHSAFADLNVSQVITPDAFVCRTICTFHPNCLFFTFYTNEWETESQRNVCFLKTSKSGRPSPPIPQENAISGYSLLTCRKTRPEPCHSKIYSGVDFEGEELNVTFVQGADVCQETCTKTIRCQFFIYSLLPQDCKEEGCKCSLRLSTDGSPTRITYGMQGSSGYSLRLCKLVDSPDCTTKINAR
# Chain of Plasma kallikrein (Mus musculus) (P26262 391-638 limits assumed): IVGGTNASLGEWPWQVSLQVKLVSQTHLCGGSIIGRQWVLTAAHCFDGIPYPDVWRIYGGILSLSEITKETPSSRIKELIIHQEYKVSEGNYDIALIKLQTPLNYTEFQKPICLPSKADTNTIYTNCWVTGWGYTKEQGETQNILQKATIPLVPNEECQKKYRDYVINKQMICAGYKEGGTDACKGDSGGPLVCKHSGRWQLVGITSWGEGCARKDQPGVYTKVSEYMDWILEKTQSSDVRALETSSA
inhibition [1],IC50 (Plasma kallikrein) [nM],inhibition [2],inhibition [3],SMILES
inactive,> 10000,inactive,inactive,CC(C)C[C@H](NC(=O)[C@@H]1CCCN1C(=O)[C@H](CS)NC(=O)[C@H](CC(N)=O)NC(=O)[C@H](CCCNC(=N)N)NC(=O)[C@H](Cc1ccccc1)NC(=O)[C@H](CCCNC(=N)N)NC(=O)[C@H](CC(=O)O)NC(=O)[C@H](CO)NC(=O)[C@H](CS)NC(=O)[C@H](C)N)C(=O)N[C@@H](Cc1c[nH]c2ccccc12)C(=O)N[C@@H](CO)C(=O)NCC(=O)N[C@H](C(=O)N[C@@H](CS)C(=O)NCC(N)=O)[C@@H](C)O (H-ACSDRFRNCPLWSGTCG-NH2)
,5710,,,CSCC[C@H](NC(=O)[C@H](CC(C)C)NC(=O)[C@H](CC(=O)O)NC(=O)[C@H](CCC(=O)O)NC(=O)[C@H](Cc1ccc(O)cc1)NC(=O)[C@H](CS)NC(=O)[C@H](C)NC(=O)[C@@H](NC(=O)[C@H](CCCN=C(N)N)NC(=O)[C@H](Cc1c[nH]c2ccccc12)NC(=O)[C@@H]1CCCN1C(=O)[C@H](C)NC(=O)[C@H](CS)NC(=O)[C@H](C)N)[C@@H](C)O)C(=O)N[C@@H](Cc1c[nH]c2ccccc12)C(=O)N[C@@H](CS)C(=O)NCC(N)=O (H-ACAPWRTACYEDLMWCG-NH2)
,> 10000,,,CC(C)[C@H](NC(=O)[C@H](CCCN=C(N)N)NC(=O)[C@H](CS)NC(=O)[C@H](CCCN=C(N)N)NC(=O)CNC(=O)[C@H](CCC(=O)O)NC(=O)CNC(=O)[C@@H](NC(=O)CNC(=O)[C@H](CS)NC(=O)[C@H](C)N)[C@@H](C)O)C(=O)N[C@@H](CC(N)=O)C(=O)N[C@@H](Cc1c[nH]c2ccccc12)C(=O)N[C@H](C(=O)N1CCC[C@H]1C(=O)N[C@@H](CS)C(=O)NCC(N)=O)[C@@H](C)O
,39.1,,,CC(C)[C@@H]1NC(=O)[C@H](CCCNC(=N)N)NC(=O)[C@@H]2CSCc3cc(cc(c3)CSC[C@@H](C(=O)NCC(N)=O)NC(=O)[C@@H]3CCCN3C(=O)[C@H]([C@H](C)O)NC(=O)[C@H](Cc3c[nH]c4ccccc34)NC(=O)[C@H](CC(N)=O)NC1=O)CSC[C@H](NC(=O)[C@H](C)N)C(=O)NCC(=O)N[C@@H]([C@H](C)O)C(=O)NCC(=O)N[C@@H](CCC(=O)O)C(=O)NCC(=O)N[C@@H](CCCNC(=N)N)C(=O)N2
,2000,,,CC[C@H](C)[C@@H]1NC(=O)[C@H](CC(N)=O)NC(=O)[C@H](CC(N)=O)NC(=O)[C@H](C(C)C)NC(=O)[C@H](CCCNC(=N)N)NC(=O)[C@@H]2CSCc3cc(cc(c3)CSC[C@@H](C(=O)NCC(N)=O)NC(=O)[C@H](CO)NC1=O)CSC[C@H](NC(=O)[C@H](C)N)C(=O)NCC(=O)NCC(=O)N[C@@H](CC(N)=O)C(=O)N[C@@H](CO)C(=O)N[C@@H](CC(=O)O)C(=O)N[C@@H](CCCNC(=N)N)C(=O)N2 (H-ACGGNSDRCRVNNISCG-NH2; linker 2-9-16 via TBMB)
,28.6,,,"CC(C)C[C@@H]1NC(=O)[C@@H]2CCCN2C(=O)[C@@H]2CSCc3cc(cc(c3)CSC[C@@H](C(=O)NCC(N)=O)NC(=O)[C@H](C(C)O)NC(=O)CNC(=O)[C@H](CO)NC(=O)[C@H](Cc3c[nH]c4ccccc34)NC1=O)CSC[C@H](NC(=O)[C@H](C)N)C(=O)N[C@@H](CO)C(=O)N[C@@H](CC(=O)O)C(=O)N[C@@H](CCCNC(=N)N)C(=O)N[C@@H](Cc1ccccc1)C(=O)N[C@@H](CCCNC(=N)N)C(=O)N[C@@H](CC(N)=O)C(=O)N2 (single isomer, unassigned)"
,50,,,CC(C)[C@@H]1NC(=O)[C@@H]2CCCN2C(=O)[C@@H]2CSCc3cc(cc(c3)CSC[C@@H](C(=O)NCC(N)=O)NC(=O)[C@H](C)NC(=O)[C@H](CO)NC(=O)[C@H](CCC(=O)O)NC(=O)[C@H](CO)NC1=O)CSC[C@H](NC(=O)[C@H](C)N)C(=O)N[C@@H](CO)C(=O)N[C@@H](CC(=O)O)C(=O)N[C@@H](CCCNC(=N)N)C(=O)N[C@@H](Cc1ccccc1)C(=O)N[C@@H](CCCNC(=N)N)C(=O)N[C@@H](CC(N)=O)C(=O)N2 (H-ACSDRFRNCPVSESACG-NH2; linker 2-9-16 via TBMB)
inactive,,inactive,inactive,CSCC[C@H](NC(=O)[C@H](CC(C)C)NC(=O)[C@H](CC(=O)O)NC(=O)[C@H](CCC(=O)O)NC(=O)[C@H](Cc1ccc(O)cc1)NC(=O)[C@H](CS)NC(=O)[C@H](C)NC(=O)[C@@H](NC(=O)[C@H](CCCNC(=N)N)NC(=O)[C@H](Cc1c[nH]c2ccccc12)NC(=O)[C@@H]1CCCN1C(=O)[C@H](C)NC(=O)[C@H](CS)NC(=O)[C@H](C)N)[C@@H](C)O)C(=O)N[C@@H](Cc1c[nH]c2ccccc12)C(=O)N[C@@H](CS)C(=O)NCC(N)=O (H-ACAPWRTACYEDLMWCG-NH2)
,20,,,CC(C)C[C@@H]1NC(=O)[C@H](C)NC(=O)[C@H](CCC(=O)O)NC(=O)[C@H](CC(=O)O)NC(=O)[C@H](C(C)C)NC(=O)[C@@H]2CCCN2C(=O)[C@@H]2CSCc3cc(cc(c3)CSC[C@@H](C(=O)NCC(N)=O)NC1=O)CSC[C@H](NC(=O)[C@H](C)N)C(=O)N[C@@H](CO)C(=O)N[C@@H](CC(=O)O)C(=O)N[C@@H](CCCNC(=N)N)C(=O)N[C@@H](Cc1ccccc1)C(=O)N[C@@H](CCCNC(=N)N)C(=O)N[C@@H](CC(N)=O)C(=O)N2 (H-ACSDRFRNCPVDEALCG-NH2; linker 2-9-16 via TBMB)
,1500,,,CSCC[C@@H]1NC(=O)[C@H](CO)NC(=O)[C@H](Cc2c[nH]c3ccccc23)NC(=O)[C@@H]2CCCN2C(=O)[C@@H]2CSCc3cc(cc(c3)CSC[C@H](NC(=O)[C@H](C)N)C(=O)N[C@@H](CC(=O)O)C(=O)N[C@@H](CO)C(=O)N[C@@H](CCCNC(=N)N)C(=O)N[C@@H](Cc3ccccc3)C(=O)N[C@@H](CCCNC(=N)N)C(=O)N[C@@H](CC(N)=O)C(=O)N2)CSC[C@@H](C(=O)NCC(N)=O)NC(=O)CNC(=O)[C@H](CO)NC1=O (H-ACDSRFRNCPWSMSGCG-NH2; linker 2-9-16 via TBMB)
inactive,7180,inactive,inactive,CC[C@H](C)[C@H](NC(=O)[C@H](CCC(=O)O)NC(=O)[C@@H](NC(=O)[C@@H]1CCCN1C(=O)[C@H](CS)NC(=O)[C@H](Cc1ccc(O)cc1)NC(=O)[C@H](CCCNC(=N)N)NC(=O)[C@H](CCCNC(=N)N)NC(=O)[C@H](CCC(=O)O)NC(=O)[C@@H](NC(=O)[C@H](CO)NC(=O)[C@H](CS)NC(=O)[C@H](C)N)[C@@H](C)O)[C@@H](C)CC)C(=O)N[C@@H](Cc1ccccc1)C(=O)N1CCC[C@H]1C(=O)N[C@@H](CS)C(=O)NCC(N)=O (H-ACSTERRYCPIEIFPCG-NH2)
inactive,,inactive,inactive,CC(C)[C@H](NC(=O)[C@H](CCCNC(=N)N)NC(=O)[C@H](CS)NC(=O)[C@H](CCCNC(=N)N)NC(=O)CNC(=O)[C@H](CCC(=O)O)NC(=O)CNC(=O)[C@@H](NC(=O)CNC(=O)[C@H](CS)NC(=O)[C@@H](C)N)[C@H](C)O)C(=O)N[C@@H](CC(N)=O)C(=O)N[C@@H](Cc1c[nH]c2ccccc12)C(=O)N[C@H](C(=O)N1CCC[C@H]1C(=O)N[C@@H](CS)C(=O)NCC(N)=O)[C@@H](C)O
,33,,,CC[C@H](C)[C@@H]1NC(=O)[C@H](CCC(=O)O)NC(=O)[C@H]([C@@H](C)CC)NC(=O)[C@@H]2CCCN2C(=O)[C@@H]2CSCc3cc(cc(c3)CSC[C@@H](C(=O)NCC(N)=O)NC(=O)[C@@H]3CCCN3C(=O)[C@H](Cc3ccccc3)NC1=O)CSC[C@H](NC(=O)[C@H](C)N)C(=O)N[C@@H](CO)C(=O)N[C@@H]([C@H](C)O)C(=O)N[C@@H](CCC(=O)O)C(=O)N[C@@H](CCCNC(=N)N)C(=O)N[C@@H](CCCNC(=N)N)C(=O)N[C@@H](Cc1ccc(O)cc1)C(=O)N2
,1800,,,"CC(C)[C@@H]1NC(=O)[C@@H](NC(=O)[C@H](C)N)CSCc2cc3cc(c2)CSC[C@@H](C(=O)NCC(N)=O)NC(=O)[C@H](C(C)O)NC(=O)[C@H](C(C)C)NC(=O)[C@H](Cc2c[nH]c4ccccc24)NC(=O)[C@H](CC(N)=O)NC(=O)[C@H](C(C)C)NC(=O)[C@H](CCCNC(=N)N)NC(=O)[C@H](CSC3)NC(=O)[C@H](Cc2ccc(O)cc2)NC(=O)[C@H](CC(N)=O)NC(=O)[C@H](Cc2cnc[nH]2)NC1=O (single isomer, unassigned)"
,30,,,CC(C)C[C@@H]1NC(=O)[C@H](Cc2c[nH]c3ccccc23)NC(=O)[C@H](CCC(=O)O)NC(=O)[C@H](CC(=O)O)NC(=O)[C@H](C(C)C)NC(=O)[C@@H]2CCCN2C(=O)[C@@H]2CSCc3cc(cc(c3)CSC[C@@H](C(=O)NCC(N)=O)NC1=O)CSC[C@H](NC(=O)[C@H](C)N)C(=O)N[C@@H](CO)C(=O)N[C@@H](CC(=O)O)C(=O)N[C@@H](CCCNC(=N)N)C(=O)N[C@@H](Cc1ccccc1)C(=O)N[C@@H](CCCNC(=N)N)C(=O)N[C@@H](CC(N)=O)C(=O)N2 (H-ACSDRFRNCPVDEWLCG-NH2; linker 2-9-16 via TBMB)
,30,,,CC(C)C[C@@H]1NC(=O)[C@H]([C@@H](C)O)NC(=O)[C@H](Cc2ccc(O)cc2)NC(=O)[C@@H]2CCCN2C(=O)[C@@H]2CSCc3cc(cc(c3)CSC[C@@H](C(=O)NCC(N)=O)NC(=O)[C@H](CC(=O)O)NC(=O)[C@H](Cc3cnc[nH]3)NC1=O)CSC[C@H](NC(=O)[C@H](C)N)C(=O)N[C@@H](CO)C(=O)N[C@@H](CC(=O)O)C(=O)N[C@@H](CCCNC(=N)N)C(=O)N[C@@H](Cc1ccccc1)C(=O)N[C@@H](CCCNC(=N)N)C(=O)N[C@@H](CC(N)=O)C(=O)N2 (H-ACSDRFRNCPYTLHDCG-NH2; linker 2-9-16 via TBMB)
,800,,,CC(C)[C@@H]1NC(=O)[C@H](CCCNC(=N)N)NC(=O)[C@@H]2CSCc3cc(cc(c3)CSC[C@@H](C(=O)NCC(N)=O)NC(=O)[C@H](CCCCN)NC(=O)CNC(=O)[C@H](Cc3ccccc3)NC(=O)[C@H](CC(N)=O)NC1=O)CSC[C@H](NC(=O)[C@H](C)N)C(=O)N[C@@H](Cc1c[nH]c3ccccc13)C(=O)N[C@@H](CCC(N)=O)C(=O)N[C@@H](C(C)C)C(=O)N[C@@H](CCC(N)=O)C(=O)N[C@@H](C(C)C)C(=O)N[C@@H](CC(N)=O)C(=O)N2 (H-ACWQVQVNCRVNFGKCG-NH2; linker 2-9-16 via TBMB)
